# Data published in patent US20250170239A1, “CELLULAR REPROGRAMMING BY TARGETING THE GOLGI APPARATUS” (MUSC Foundation for Research Development, priority 2023, published 2025).
# Assays:
# [1] = tested on: TILs isolated from B16-F10 tumors; details: expanded +/− GYY4137
# Method: To obtain tumor-infiltrating T cells (TILs) from subcutaneously established solid B16-F10 melanoma-bearing mice, tumors were excised, chopped finely using tweezers and scissors, and then digested with 2 mg/ml collagenase type IV (Stemcell Technologies, Vancouver, BC) for 45 min. The tumors were filtered through […] (BD Biosciences, San Jose, CA). The cell suspension was washed in culture medium twice by centrifugation at 1500 rpm for 10 min at 4° C. After the second wash, the cells were re-suspended in 6 ml PBS and layered carefully over 3 ml Ficoll-paque (GE Healthcare) followed by centrifugation at 1500 rpm for 30 min at room temperature. The enriched TILs obtained at the interface as a thin buffy layer were washed with PBS twice and finally re-suspended in FACS staining buffer for further staining procedures.
# [2] = tested on: Pmel CD8+ T cells; experiment: FACS phenotyping (Tcm, stemness markers) of activated Pmel T cells; format: cell-based, mouse
# Description: It was next determined if restoring H2S levels in activated T cells would alter their phenotype. To achieve steady-state levels of H2S in the T cell culture media, water-soluble H2S donor GYY4137 that slowly releases sustained levels of H2S up to 7 days in culture was used (Lee Z. W., et al., 2011, PLOS One, 6(6):e21077).
# [3] = tested on: Pmel T cells; details: activated in presence of H2S donor
# Method: Oxygen consumption rate (OCR) and extracellular acidification rate (ECAR) were determined using the Seahorse Xfe96 analyzer (Agilent Technologies, Santa Clara, CA). Briefly, T cells (0.5×10^6/well) were plated on a Cell-Tak coated Seahorse culture plate for 30 min. OCR, a measure of OXPHOS, was analyzed under basal condition, or in response to 1.0 μM oligomycin, 1.0 μM fluoro-carbonyl cyanide phenylhydrazone (FCCP) and 2 μM rotenone, plus 100 nM antimycin A. ECAR, a measure of glycolysis, was measured under basal conditions and in response to glucose (5.5 mM), Oligomycin (1.0 μM), and 2-deoxyglucose (2-DG) (100 mM). All reagents were purchased from Sigma-Aldrich, St. Louis, MO.
# [4] = tested on: Pmel T cells
# Method: (FIG. 18C) NAD+ and nicotinamide quantification from metabolomics dataset. (FIG. 18D) SIRT1 deacetylase activity in activated Pmel T cells (means of normalized OD values). (FIGS. 18E and 18F) Pmel T cells were activated with gp100 for 3 days in the presence of vehicle, GYY4137 (0.5 mM), or GYY4137+sirt1 inhibitor EX527 (10 μM). (FIG. 18E) Nuclear and cytoplasmic protein fractions were isolated and western blot analysis was performed to determine relative expression of nuclear and cytoplasmic Foxo1 (n=3). (FIG. 18F) Expression of CD62L and CD44 analyzed by FACS (n=3). (FIG. 18G) Splenocytes from wildtype and Cbs-knockout mice+/−GYY4137 activated with anti-CD3 and anti-CD28 antibodies followed by intranuclear staining for Foxo1. (FIG. 18H) Pmel T cells activated and expanded for metabolic flux analysis. Quantification of oxygen consumption rate (OCR), spare respiratory capacity (SRC), maximal respiration, and basal respiration (n=10 experimental replicates representative of 3 separate experiments). (FIG. 18I) Pmel T cells activated and expanded to day 5 for characterization of mitochondria using FACS, quantified by MFI values for mitoFM Deep Red, TMRM, and mitoSOX dyes (n=4). (FIG. 18J) Representative confocal microscopy images of mitochondria from control or H2S-treated T cells. (FIG. 18K) Human CD19 CAR-T cells expanded for 3 days with IL2+/−0.5 mM GYY4137 and collected for metabolic flux analysis. Shown is the quantification of mean oxygen consumption rate (OCR), spare respiratory capacity (SRC), maximal respiration, and basal respiration.
# Alexa Fluor 488 (anti-Giantin) and Alexa Fluor 647 (anti-TOMM20) fluorescence were imaged in a Zeiss LSM 880 NLO inverted laser scanning confocal microscope (Thornwood, NY) using a 63× 1.4 N.A. plan-apochromat oil immersion lens. Alexa Fluor 488 and Alexa Fluor 647 were excited at 488 nm and 633 nm, respectively. Emitted light was detected with an Airyscan super-resolution detector at BP 495-550 nm for Giantin label and LP 654 nm for TOMM20. Z-stack Airyscan images were processed using the Huygens Professional deconvolution and image analysis software (Scientific Volume Imaging, The Netherland). After images were deconvolved using Huygens' Deconvolution Express (Standard Profile) that determines optimal parameters, 3D surface rendering of deconvolved images with watershed augmentation using Huygens' Surface Renderer was performed.
# [5] = tested on: Jurkat cells; details: 50 mM H2O2 +/− GYY4137; wildtype vs C51A Prdx4
# Method: (§1) (FIG. 22A) Pmel T cells were activated for 3 days before treatment with vehicle or 50 mM H2O2 for 6 hrs. Prdx4-Golgi colocalization was assessed by PLA using mouse anti-Giantin and rabbit anti-Prdx4 antibodies. (FIG. 22B) Activated Pmel T cells treated with vehicle or 50 mM H2O2 for 6 hrs or 24 hrs with Monensin (1 mM). PLA assay was performed using anti-Giantin and anti-Prdx4 antibodies. (FIG. 22C) Experimental design using Prdx4-targeted siRNA to silence expression of Prdx4 in Pmel T cells. (FIG. 22D) GM130 expression assessed under control versus Monensin (1 μM) conditions in T cells treated with control-siRNA or Prdx4-siRNA. (FIG. 22E) GM130 expression assessed under control versus 50 mM H2O2 conditions in T cells treated with control-siRNA or Prdx4-siRNA+/−0.5 mM GYY4137. (FIG. 22F) Protein translation assessed in Pmel T cells activated+/−GYY4137 and treated with control-siRNA or Prdx4-siRNA. (FIG. 22G) GM130 expression in Pmel T cells treated with vehicle, GYY4137, or Catalase (10 μg/mL). (FIGS. 22H and 22I) Site directed mutagenesis performed to mutate cysteine-54 of the Prdx4 gene. Prdx4-targeted shRNA was used to knock down expression of Prdx4 in Jurkat T cells, followed by transfection with plasmid containing wildtype or mutated Prdx4. (FIG. 22I) GM130 expression assessed after treatment with 50 mM H2O2+/−GYY4137. […]
# [6] = tested on: Prdx4-Golgi colocalization; details: 50 mM H2O2 24 hrs
# Method: as §1
smiles,measurement,setting,value
C1COCCN1.COc1ccc(P(=S)(S)N2CCOCC2)cc1 (centres unmarked) [GYY4137],GM130 expression,[1],significantly higher GM130 expression
same,PD1 expression,[1],lower PD1 expression
same,maintenance of increase in Tcm phenotype over time,"[2]; FACS at day 0, 2, 4, 6, GYY4137 0.5 mM",consistently maintained over six days
same,expression of Tcf7 and Sca1 (stemness markers),"[2]; GYY4137 0.5 mM, 3 days",significantly enhanced the expression of Tcf7 and Sca1
same,Tcm phenotype (CD62L+CD44+ co-expression),"[2]; Pmel T cells activated with gp100 + IL2, GYY4137 0.5 mM, compared to IL2 alone",significant increase in the Tcm phenotype
same,basal respiration,[3],did not alter basal respiration
same,maximal respiration,[3],significant increase
same,spare respiratory capacity (SRC),[3],significant increase
same,mitochondrial organization and morphology (confocal),[4]; control vs H2S-treated,more compact and continuous mitochondria
same,mitochondrial mass (mitoFM staining),[4]; expanded to day 5,increased overall mitochondrial mass
same,mitochondrial membrane potential (TMRM staining),[4]; expanded to day 5,decreased mitochondrial membrane potential
same,mitochondrial reactive oxygen species (mitoSOX staining),[4]; expanded to day 5,decreased mitochondrial reactive oxygen species
same,protective effect on H2O2-induced Golgi stress (GM130),[5],only observed in Jurkat cells expressing wildtype Prdx4
same,loss of Prdx4 localization within the Golgi under prolonged oxidative stress,[6],loss of colocalization was mitigated
